Here are results for 21 compounds from patent US20190185479A1, “BICYCLIC NITROGENATED HETEROCYCLIC COMPOUND” (MITSUBISHI TANABE PHARMA CORPORATION, priority 2016, published 2019).

Assay type in all cases: biochemical
One experiment deals with T1, Human PDE7B (hPDE7B) (Homo sapiens, UniProt Q9NP56).
T1 construct: made in house; host or cells: COS-7 cells
Description: Measurement of PDE7 inhibitory activity (Experimental Example 1; residual cAMP, LANCE Ultra cAMP TR-FRET). To be noted: cAMP 3 nmol/L, room temperature 60 minutes. Summed up:
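hPDE7B from transfected COS-7 cells reacted with 3 nmol/L cAMP (final) and compound (2% DMSO) in 50 mmol/L Tris-HCl pH 7.5, 1 mmol/L MgCl2, 0.1% BSA, 0.5 mmol/L DTT, 60 min at room temperature. Reaction stopped with IBMX; residual cAMP measured by TR-FRET. Inhibition scaled between no-compound and no-enzyme controls.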

For another experiment, the target named is T2, hPDE4D (Homo sapiens, UniProt Q08499).
T2 construct: purchased SB Drug Discovery
In words: PDE4 inhibition assay (IC50), Experimental Example 3. To be noted: for IC50: hPDE4D, read-out: PDE inhibition assay IC50, PDE4. How it is done: (§1) PDE7 inhibitory assay was carried out by reacting the mixture of a compound, hPDE7B, and cAMP, and measuring the residual cAMP by a detection method using LANCE (registered trademark) Ultra cAMP Detection Kit (ParkinElmer). The compound was dissolved in DMSO, and diluted so that the concentration would become 50 times of the final concentration. The hPDE7B and cAMP were diluted with an assay buffer (50 mmol/L Tris-HCl, 1 mmol/L MgCl2, 0.1% BSA, 0.5 mmol/L DTT, pH7.5) so that the hPDE7B would have an appropriate enzyme activity and the concentration of cAMP would become 6 nmol/L. To a 96 well plate were added the compound (2 μL) (DMSO final concentration: 2%), hPDE7B (48 μL), and cAMP (50 μL) (concentration at the reaction: 3 nmol/L), and the resulting mixture was reacted at room temperature for 60 minutes. The reaction solution (20 μL) was subjected to a TR-FRET method according to the protocol specified by the kit to measure the concentration of the residual cAMP. In the assay, to a tracer solution specified by the kit was added 0.5 mmol/L of 3-isobutyl-1-methylxanthine (IBMX, nonselective PDE inhibitor) in order to stop the PDE enzyme reaction after the completion of reaction until the measurement.
(§2) The prediction of PDE7 selectivity was evaluated by comparing each IC50 value of a compound against PDE4, 8, and 10 with the IC50 value of said compound against PDE7B.
(§3) hPDE4D, hPDE8B, and hPDE10A were prepared by the same method as [Method for preparing samples 2].
(§4) PDE4, 8, and 10 inhibitory assays were carried out by the same method as [Assay procedure 1].
(§5) The reaction without a compound wad defined as “0% inhibition”, the reaction without each PDE was defined as “100% inhibition”, and the calculation of IC50 value was carried out by the same method as <Method for data calculation 1>.

A further experiment has as its target T3, hPDE8B (Homo sapiens, UniProt O95263).
T3 construct: purchased SB Drug Discovery
Description: PDE8 inhibition assay (IC50), Experimental Example 3. The following applies: for inhibition rate (%) at prescribed concentration, PDE8 / inhibition at 1 µM: at 1 μmol/L; for IC50: hPDE8B, read-out: PDE inhibition assay IC50, PDE8; for inhibition at 1 µM: read-out: inhibition rate (%) at prescribed concentration, PDE8. The procedure: as §1, §2, §3, §4, §5

The next experiment addresses hPDE10A (Homo sapiens, UniProt Q9Y233). Description: PDE10 inhibition assay (IC50), Experimental Example 3. The following applies: for IC50: hPDE10A, read-out: PDE inhibition assay IC50, PDE10. The procedure: as §1, §2, §3, §4, §5
[1] abbreviates: at 10 μmol/L, read-out: inhibition rate (%) at prescribed concentration, PDE10.

T3 sequence (O95263 whole entry): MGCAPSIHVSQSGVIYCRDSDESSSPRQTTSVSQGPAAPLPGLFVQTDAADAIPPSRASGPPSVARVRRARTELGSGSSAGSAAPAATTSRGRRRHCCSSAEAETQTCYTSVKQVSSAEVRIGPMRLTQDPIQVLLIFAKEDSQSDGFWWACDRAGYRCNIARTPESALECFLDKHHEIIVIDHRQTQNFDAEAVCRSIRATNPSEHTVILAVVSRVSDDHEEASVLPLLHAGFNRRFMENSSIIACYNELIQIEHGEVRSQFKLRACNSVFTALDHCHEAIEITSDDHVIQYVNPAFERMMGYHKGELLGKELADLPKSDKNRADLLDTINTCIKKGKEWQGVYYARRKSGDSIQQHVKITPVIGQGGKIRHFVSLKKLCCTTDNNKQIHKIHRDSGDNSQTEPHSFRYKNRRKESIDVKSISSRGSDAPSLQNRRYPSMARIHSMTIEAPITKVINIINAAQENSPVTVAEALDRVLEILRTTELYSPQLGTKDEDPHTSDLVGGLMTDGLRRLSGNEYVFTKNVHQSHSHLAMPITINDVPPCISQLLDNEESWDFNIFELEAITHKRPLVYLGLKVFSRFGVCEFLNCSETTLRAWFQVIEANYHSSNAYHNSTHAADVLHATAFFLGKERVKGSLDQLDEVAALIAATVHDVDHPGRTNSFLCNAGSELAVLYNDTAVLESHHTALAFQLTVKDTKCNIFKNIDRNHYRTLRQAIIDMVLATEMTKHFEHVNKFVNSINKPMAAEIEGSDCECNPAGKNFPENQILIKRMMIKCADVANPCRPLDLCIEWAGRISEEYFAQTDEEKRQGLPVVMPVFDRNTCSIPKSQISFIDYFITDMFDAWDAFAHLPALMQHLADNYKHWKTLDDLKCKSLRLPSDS
T2 sequence (Q08499 whole entry): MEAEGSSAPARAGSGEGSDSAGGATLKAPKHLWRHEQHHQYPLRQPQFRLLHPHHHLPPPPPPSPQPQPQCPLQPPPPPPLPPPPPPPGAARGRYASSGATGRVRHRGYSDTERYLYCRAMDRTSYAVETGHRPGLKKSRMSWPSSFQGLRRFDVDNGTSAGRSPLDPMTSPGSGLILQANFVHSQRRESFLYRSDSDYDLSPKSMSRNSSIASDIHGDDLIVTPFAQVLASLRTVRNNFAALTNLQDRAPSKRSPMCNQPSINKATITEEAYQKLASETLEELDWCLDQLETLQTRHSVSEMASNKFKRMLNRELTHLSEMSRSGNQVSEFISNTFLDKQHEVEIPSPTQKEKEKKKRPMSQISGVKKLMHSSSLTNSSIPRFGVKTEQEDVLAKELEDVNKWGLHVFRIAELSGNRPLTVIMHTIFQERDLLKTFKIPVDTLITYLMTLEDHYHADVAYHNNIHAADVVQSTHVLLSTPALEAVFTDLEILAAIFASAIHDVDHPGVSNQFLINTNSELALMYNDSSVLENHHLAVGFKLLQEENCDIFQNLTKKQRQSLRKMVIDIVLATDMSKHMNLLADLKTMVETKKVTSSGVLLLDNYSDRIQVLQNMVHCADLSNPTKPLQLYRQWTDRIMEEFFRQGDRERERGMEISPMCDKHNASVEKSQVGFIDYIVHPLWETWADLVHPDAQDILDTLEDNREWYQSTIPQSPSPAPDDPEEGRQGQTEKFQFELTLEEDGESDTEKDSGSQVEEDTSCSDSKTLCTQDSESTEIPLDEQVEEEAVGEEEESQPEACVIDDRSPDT
T1 sequence (Q9NP56 whole entry): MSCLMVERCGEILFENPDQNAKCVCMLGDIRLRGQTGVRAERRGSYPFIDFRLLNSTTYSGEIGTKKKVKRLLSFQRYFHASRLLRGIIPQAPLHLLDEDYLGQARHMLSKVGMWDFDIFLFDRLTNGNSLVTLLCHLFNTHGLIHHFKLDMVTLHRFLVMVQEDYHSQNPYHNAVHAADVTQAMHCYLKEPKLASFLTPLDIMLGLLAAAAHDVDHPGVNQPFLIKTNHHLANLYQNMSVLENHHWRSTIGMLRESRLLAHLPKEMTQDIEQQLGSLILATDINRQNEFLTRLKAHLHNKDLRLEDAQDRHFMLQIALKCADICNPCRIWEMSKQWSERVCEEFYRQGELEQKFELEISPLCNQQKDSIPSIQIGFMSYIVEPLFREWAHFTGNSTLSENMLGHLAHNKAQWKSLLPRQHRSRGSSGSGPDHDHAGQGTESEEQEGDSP
Chain of hPDE10A (Q9Y233 290-1055 limits assumed): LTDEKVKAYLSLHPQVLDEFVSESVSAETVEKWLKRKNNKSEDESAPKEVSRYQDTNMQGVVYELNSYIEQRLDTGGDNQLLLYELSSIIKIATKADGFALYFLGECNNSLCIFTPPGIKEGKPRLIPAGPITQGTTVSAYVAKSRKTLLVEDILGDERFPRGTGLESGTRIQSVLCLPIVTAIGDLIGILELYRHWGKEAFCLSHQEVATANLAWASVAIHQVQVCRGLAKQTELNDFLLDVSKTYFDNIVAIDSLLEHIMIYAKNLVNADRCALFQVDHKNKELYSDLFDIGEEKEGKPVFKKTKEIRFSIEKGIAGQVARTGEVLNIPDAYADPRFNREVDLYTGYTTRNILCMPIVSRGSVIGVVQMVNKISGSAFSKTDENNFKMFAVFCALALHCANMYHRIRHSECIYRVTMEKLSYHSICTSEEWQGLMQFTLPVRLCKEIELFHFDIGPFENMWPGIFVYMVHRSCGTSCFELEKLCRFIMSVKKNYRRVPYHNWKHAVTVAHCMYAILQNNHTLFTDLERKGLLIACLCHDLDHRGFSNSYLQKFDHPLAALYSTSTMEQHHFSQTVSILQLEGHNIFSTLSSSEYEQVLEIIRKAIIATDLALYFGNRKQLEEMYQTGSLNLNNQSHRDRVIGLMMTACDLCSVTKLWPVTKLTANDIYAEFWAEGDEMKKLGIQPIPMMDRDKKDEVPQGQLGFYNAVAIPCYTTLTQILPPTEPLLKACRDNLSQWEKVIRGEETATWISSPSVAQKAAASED

For `CC1CCCCC1c1nnc2c(N)ncnn12` (single isomer, unassigned) [Example 70, 3-(cis-2-methylcyclohexyl) [1,2,4]triazolo[3,4-f][1,2,4]triazin-8-amine], the IC50 – broadly, the concentration that inhibits the measured activity by half – against Human PDE7B (hPDE7B) came out at 25 nM; on hPDE10A, 1.8 µM. In addition, the “inhibition rate (%) at prescribed concentration, PDE4” value at hPDE4D (at 1 μmol/L) was determined as 67% at 1. In addition, at hPDE8B, the “inhibition rate (%) at prescribed concentration, PDE8” value was 64% at 1.

Turning to `CC1CCCC(c2nnc3c(N)ncnn23)C1` (single isomer, unassigned) [Example 72, 3-(cis-3-methylcyclohexyl) [1,2,4]triazolo[3,4-f][1,2,4]triazin-8-amine], the IC50 on Human PDE7B (hPDE7B) worked out at 10 nM; on hPDE4D it was 1.49 µM; on hPDE10A, 8.91 µM. In addition, the “inhibition rate (%) at prescribed concentration, PDE8” value at hPDE8B is 62% at 1.

With `Nc1ncnn2c(C3CCCC(C(F)(F)F)C3)nnc12` (single isomer, unassigned) [Example 75, 3-[cis-3-(trifluoromethyl)cyclohexyl][1,2,4]triazolo[3,4-f][1,2,4]triazin-8-amine], the values for the IC50 at Human PDE7B (hPDE7B), on hPDE4D and on hPDE8B were 53 nM, 27.1 µM and 4.33 µM, respectively. Also, on hPDE10A (at 100 μmol/L, read-out: inhibition rate (%) at prescribed concentration, PDE10), the inhibition at 100 µM is 44%.

In the case of `Nc1ncnc2c1nnn2C1CCCCC1(F)F` (single isomer, unassigned) [Example 115, 3-(2,2-difluorocyclohexyl)-3H-[1,2,3]triazolo[4,5-d]pyrimidin-7-amine], the IC50 against Human PDE7B (hPDE7B) was < 10 nM; at hPDE4D it was 11.9 µM; on hPDE10A, 12.3 µM. In addition, the inhibition at 1 µM on hPDE8B was 52%.

For `CC1CCC(C(F)(F)F)CC1c1nnc2c(N)nccn12` (single isomer, unassigned) [Example 174, 3-[2-methyl-5-(trifluoromethyl)cyclohexyl][1,2,4]triazolo[4,3-a]pyrazin-8-amine], the IC50 at Human PDE7B (hPDE7B) came out at 3 nM; at hPDE4D it was 6 µM; on hPDE8B, 6.8 µM; at hPDE10A it was 1.3 µM.

Take `CC1CCC(F)(F)CC1c1nnc2c(N)nccn12` (single isomer, unassigned) [Example 175, 3-(cis-5,5-difluoro-2-methylcyclohexyl) [1,2,4]triazolo[4,3-a]pyrazin-8-amine]: the IC50 at Human PDE7B (hPDE7B) was < 10 nM; at hPDE4D, 14.9 µM; at hPDE8B, 19.5 µM; on hPDE10A it was 1.9 µM.

On to `CC1(C)CC(c2nnc3c(N)nccn23)CC(F)(F)C1` (single isomer, unassigned) [Example 177, 3-(3,3-difluoro-5,5-dimethylcyclohexyl) [1,2,4]triazolo[4,3-a]pyrazin-8-amine], for which the IC50 against Human PDE7B (hPDE7B) worked out at 35 nM; at hPDE4D it was 21 µM; at hPDE8B, 13.7 µM; at hPDE10A, 13.3 µM.

For `CC1CCCCC1n1nnc2c(N)ncnc21` (single isomer, unassigned) [Example 192, 3-(trans-2-methylcyclohexyl)-3H-[1,2,3]triazolo[4,5-d]pyrimidin-7-amine], the IC50 on Human PDE7B (hPDE7B) was 40 nM; at hPDE8B it was 4.18 µM; on hPDE10A, 8.25 µM. In addition, the inhibition at 10 µM on hPDE4D (at 10 μmol/L, read-out: inhibition rate (%) at prescribed concentration, PDE4) worked out at 45%.

For the compound `Nc1ncnc2c1nnn2C1CCCCC1F` (single isomer, unassigned) [Example 194, 3-(cis-2-fluorocyclohexyl)-3H-[1,2,3]triazolo[4,5-d]pyrimidin-7-amine], the IC50 turned out to be 40 nM on Human PDE7B (hPDE7B), 6.98 µM on hPDE4D and 12.2 µM at hPDE10A. Besides, the inhibition at 1 µM at hPDE8B worked out at 79%.

As to `Nc1ncnc2c1nnn2C1CCCCC1F` (single isomer, unassigned) [Example 195, 3-(cis-2-fluorocyclohexyl)-3H-[1,2,3]triazolo[4,5-d]pyrimidin-7-amine], the IC50 against Human PDE7B (hPDE7B) is 50 nM; on hPDE4D, 5.7 µM; on hPDE8B, 1.41 µM; on hPDE10A, 30.6 µM.

Turning to `CC1CCCC(n2nnc3c(N)ncnc32)C1` (single isomer, unassigned) [Example 196, 3-(cis-3-methylcyclohexyl)-3H-[1,2,3]triazolo[4,5-d]pyrimidin-7-amine], the results for the IC50 at Human PDE7B (hPDE7B), at hPDE4D and on hPDE8B were < 10 nM, 2.49 µM and 0.29 µM, respectively. For the same compound, the inhibition at 10 µM on hPDE10A (setting [1]) is 49%.

For `CC1CCCC(n2nnc3c(N)ncnc32)C1` (single isomer, unassigned) [Example 199, 3-(trans-3-methylcyclohexyl)-3H-[1,2,3]triazolo[4,5-d]pyrimidin-7-amine], the 50% inhibitory concentration (IC50) amounted to 30 nM on Human PDE7B (hPDE7B), 3.84 µM at hPDE4D and 6.87 µM at hPDE8B. For the same compound, the “inhibition rate (%) at prescribed concentration, PDE10” value against hPDE10A (at 10 μmol/L) is recorded as 29% at 10.

Consider `Nc1ncnc2c1nnn2C1CCCC(C(F)F)C1` (single isomer, unassigned) [Example 200], for which the half-inhibitory concentration (IC50) was 30 nM against Human PDE7B (hPDE7B), 0.54 µM at hPDE4D, 0.99 µM on hPDE8B and 16.6 µM at hPDE10A.

On to `Nc1ncnc2c1nnn2C1CCCC(C(F)(F)F)C1` (single isomer, unassigned) [Example 202, 3-[cis-3-(trifluoromethyl)cyclohexyl]-3H-[1,2,3]triazolo[4,5-d]pyrimidin-7-amine], for which the results for the IC50 on Human PDE7B (hPDE7B), at hPDE4D and on hPDE8B were 14 nM, 5.31 µM and 1.16 µM, respectively. Further, the inhibition at 10 µM at hPDE10A (setting [1]) was found to be 27%.

Turning to `CC1(C)CCCC(c2nnc3c(N)nccn23)C1` (single isomer, unassigned) [Example 207, 3-(3,3-dimethylcyclohexyl) [1,2,4]triazolo[4,3-a]pyrazin-8-amine], the IC50 on Human PDE7B (hPDE7B) was < 10 nM; at hPDE4D, 10.5 µM; on hPDE8B it was 1.5 µM; on hPDE10A, 10.2 µM.

With `Nc1nccn2c(C3CCCC4(CC4)C3)nnc12` (single isomer, unassigned) [Example 208, 3-(spiro[2,5]oct-5-yl) [1,2,4]triazolo[4,3-a]pyrazin-8-amine], the 50% inhibitory concentration (IC50) on Human PDE7B (hPDE7B) is < 10 nM; at hPDE4D, 10.3 µM; at hPDE8B, 3.4 µM; at hPDE10A, 8.6 µM.

Turning to `Nc1nccn2c(C3CCCC(C(F)(F)F)C3)nnc12` (single isomer, unassigned) [Example 210, 3-[cis-3-(trifluoromethyl)cyclohexyl][1,2,4]triazolo[4,3-a]pyrazin-8-amine], the IC50 against Human PDE7B (hPDE7B) is 13 nM; at hPDE4D it was 5.45 µM; at hPDE8B it was 3.93 µM; on hPDE10A, 17.7 µM.

On to `CC1CC(c2nnc3c(N)nccn23)CC(F)(F)C1` (single isomer, unassigned) [Example 214], for which the IC50 at Human PDE7B (hPDE7B) turned out to be 60 nM; at hPDE4D it was 6.4 µM; on hPDE8B, 17.1 µM; on hPDE10A it was 15.7 µM.

As to `CC1CC(c2nnc3c(N)nccn23)CC(F)(F)C1` (single isomer, unassigned) [Example 216, 3-(trans-3,3-difluoro-5-methylcyclohexyl[1,2,4]triazolo[4,3-a]pyrazin-8-amine], the IC50 against Human PDE7B (hPDE7B) is 50 nM; at hPDE4D, 30.6 µM; at hPDE8B, 16.6 µM; at hPDE10A it was 37.9 µM.

Consider `Nc1nccn2c(C3CCC4CC4C3)nnc12` (single isomer, unassigned) [Example 218, 3-(bicyclo[4.1.0]hept-3-yl) [1,2,4]triazolo[4,3-a]pyrazin-8-amine], for which the IC50 on Human PDE7B (hPDE7B) stood at 80 nM; on hPDE4D it was 4.1 µM; at hPDE8B, 2.6 µM; at hPDE10A it was 3 µM.

Take `Nc1nccn2c(C3CCC4CC4C3)nnc12` (single isomer, unassigned) [Example 219, 3-(bicyclo[4.1.0]hept-3-yl) [1,2,4]triazolo[4,3-a]pyrazin-8-amine]: the 50% inhibitory concentration (IC50) against Human PDE7B (hPDE7B) was 50 nM; at hPDE4D, 2.1 µM; on hPDE8B, 1.2 µM; on hPDE10A, 4.7 µM.
